Molecules are shown by their SMILES. Structures can show the parent of a compound that is named as a salt.

The target of the assay is Glycogen synthase kinase-3 beta (Homo sapiens, UniProt P49841). The assay can be described thus: GSK3beta kinase inhibitor potency, dose response, biochemical, luminescence, cell-free homogeneous, retest (AID 434954).
Chain of Glycogen synthase kinase-3 beta (P49841 whole entry): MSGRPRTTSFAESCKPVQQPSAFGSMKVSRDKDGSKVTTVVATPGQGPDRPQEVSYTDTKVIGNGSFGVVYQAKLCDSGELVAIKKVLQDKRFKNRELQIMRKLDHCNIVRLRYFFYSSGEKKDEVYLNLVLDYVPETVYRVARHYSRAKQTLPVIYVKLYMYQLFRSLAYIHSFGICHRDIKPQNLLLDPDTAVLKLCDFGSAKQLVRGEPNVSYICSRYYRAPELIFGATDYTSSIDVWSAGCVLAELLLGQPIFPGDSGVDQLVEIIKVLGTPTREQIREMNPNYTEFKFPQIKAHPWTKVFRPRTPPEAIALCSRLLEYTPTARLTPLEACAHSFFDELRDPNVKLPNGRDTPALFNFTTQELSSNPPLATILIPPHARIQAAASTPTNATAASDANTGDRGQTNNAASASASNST
Take `Cc1ccccc1CN=Nc1ncnc2nc[nH]c12` [MLS000419110]: the response was half-maximal at 17.2 µM (EC50).

For the compound `COc1ccc(CCNc2c(C=O)c(=O)[nH]c3ccccc23)cc1OC`, the 50% effective concentration (EC50) (in general, the concentration giving half of the maximal effect) is greater than 300 µM.

With `Cc1ccc(Nc2nc(N)c([N+](=O)[O-])c(NCc3ccco3)n2)cc1`, the EC50 worked out at 9.2 µM.

The compound `CCN1CCN(Cc2ccc(NC(=O)c3ccc(C)c(/C=C/c4cnc(Nc5cc(N6CCNCC6)nc(C)n5)cn4)c3)cc2C(F)(F)F)CC1` [SMR000718284] displayed a 50% effective concentration (EC50) greater than 300 µM.

`Cn1c(SCC(=O)Nc2ccc(Br)cn2)nnc1C1CC1` [N-(5-bromopyridin-2-yl)-2-[(5-cyclopropyl-4-methyl-1,2,4-triazol-3-yl)sulfanyl]acetamide] displayed a concentration for a half-maximal effect (EC50) of 20.7 µM.

Take `CCCc1cc(=O)oc2cc(C)c3c(C)coc3c12` [MLS000112563]: the EC50 is greater than 300 µM.

`CC[n+]1c(/C=C/C=C/c2ccc(N(C)C)cc2)sc2ccccc21` [SMR000420206]: it took 35.1 µM to reach a half-maximal effect (EC50).

In turn, `COc1ccc(-c2cc(C(F)(F)F)nc(SCCC(=O)N3CCOCC3)n2)cc1` [3-[4-(4-methoxyphenyl)-6-(trifluoromethyl)pyrimidin-2-yl]sulfanyl-1-morpholin-4-ylpropan-1-one] returned a 50% effective concentration (EC50) greater than 300 µM.

The compound `COc1ccc2nc(C)cc(Nc3ccc(N4CCN(C)CC4)cc3)c2c1` showed an EC50 greater than 300 µM.

In turn, `COc1ccc(Nc2oc(COc3ccccc3F)nc2C#N)cc1` registered a 50% effective concentration (EC50) greater than 300 µM.

Turning to `COc1ccc(C)cc1NC(=O)CN(C)S(=O)(=O)c1ccc2c(c1)CC(C)N2C(C)=O` (configuration not stated) [MLS001122753], the EC50 was greater than 300 µM.

`CC(C)CC(=O)Nc1ncc([N+](=O)[O-])s1` [MLS001043214] yielded a 50% effective concentration (EC50) of 4.86 µM.

`NC(=O)C1CCN(c2nc3c(S(=O)(=O)c4ccccc4)nnn3c3ccccc23)CC1` [SMR000629006] gave a 50% effective concentration (EC50) greater than 300 µM.

Compound `CCCN(CCC)Cc1c(C(=O)NN=Cc2ccc(C)o2)nnn1-c1nonc1N` [1-(4-azanyl-1,2,5-oxadiazol-3-yl)-5-[(dipropylamino)methyl]-N-[(5-methylfuran-2-yl)methylideneamino]-1,2,3-triazole-4-carboxamide] registered an EC50 greater than 300 µM.

`Oc1cccc(Nc2nc(-c3ccccc3)nc3ccccc23)c1` registered a 50% effective concentration (EC50) greater than 300 µM.

Regarding `NS(=O)(=O)c1ccc(N/N=C2\C(=O)Nc3ccc(Br)cc32)cc1` [SMR000592222], the EC50 is greater than 300 µM.

The compound `CC1(C)CC(=O)C2C(=Nc3cc4c(cc3C2c2ccc(F)cc2)OCO4)C1` (configuration not stated) [MLS000528763] returned an EC50 greater than 300 µM.

In turn, `C=CCNC(=O)c1onc(CSc2cccc(OC)c2)c1C(=O)NCC=C` [3-[(3-methoxyphenyl)sulfanylmethyl]-N4,N5-bis(prop-2-enyl)-1,2-oxazole-4,5-dicarboxamide] showed an EC50 greater than 300 µM.

`Cc1cc(N2CCN(C(=O)c3ccco3)CC2)c2ccccc2n1` [SMR000460267] displayed an EC50 greater than 300 µM.

Regarding `COC(=O)C1=C(C)N(CCc2cc(OC)c(OC)c(OC)c2)C(=O)N[C@H]1c1ccccc1` [methyl (6S)-4-methyl-2-oxo-6-phenyl-3-[2-(3,4,5-trimethoxyphenyl)ethyl]-1,6-dihydropyrimidine-5-carboxylate], the EC50 was greater than 300 µM.

Turning to `COc1ccc(C(O)c2coc3ccc(O)c(CN(C)C)c23)cc1` (configuration not stated) [SMR000070308], the EC50 was greater than 300 µM.

As to `c1ccc(-c2nc(-c3ccco3)n3ccccc23)cc1` [MLS000392030], the concentration for a half-maximal effect (EC50) was greater than 300 µM.

`O=C(C(Cc1ccccc1)n1cccc1)N1CCN(c2cccc(Cl)c2)CC1` (configuration not stated) [SMR000127921] returned an EC50 greater than 300 µM.

`Cc1ccccc1NC(=O)CN1C(=O)c2ccccc2C1=O` [2-[1,3-bis(oxidanylidene)isoindol-2-yl]-N-(2-methylphenyl)ethanamide] returned an EC50 greater than 300 µM.

Compound `O=c1[nH]nc(SCCS(=O)(=O)c2ccc(F)cc2)n1-c1ccc2c(c1)OCCO2` [SMR000456167] gave an EC50 of 24.1 µM.

In turn, `COC(=O)c1nnn(-c2nonc2N)c1CSCCO` [1-(4-amino-1,2,5-oxadiazol-3-yl)-5-[(2-hydroxyethylthio)methyl]-4-triazolecarboxylic acid methyl ester] showed a 50% effective concentration (EC50) of 6.22 µM.

`O=C(O)c1cc(N=NCc2ccc(-c3ccc(F)cc3)o2)ccc1Cl` [2-chloranyl-5-[2-[[5-(4-fluorophenyl)furan-2-yl]methylidene]hydrazinyl]benzoic acid] registered an EC50 greater than 300 µM.

`CCCCOC(=O)C1C(C)=Nc2ncnn2C1c1cccc(OC)c1OC` (configuration not stated) [butyl 7-(2,3-dimethoxyphenyl)-5-methyl-4,7-dihydro[1,2,4]triazolo[1,5-a]pyrimidine-6-carboxylate] registered an EC50 of 4.25 µM.

For `CC1CCCN(S(=O)(=O)c2ccc(Br)s2)C1` (configuration not stated) [SMR000021898], the half-maximal effective concentration (EC50) was greater than 300 µM.

Compound `O=NCc1ccc(SCc2ccccc2Cl)c([N+](=O)[O-])c1` came in with an EC50 greater than 300 µM.

In turn, `Cc1cc(C)n2nc(C(=O)OCC(=O)NC(=O)c3ccccc3)nc2n1` [SMR000716574] had a concentration for a half-maximal effect (EC50) greater than 300 µM.

`CCOC(=O)CCNCC1COc2ccccc2O1` (configuration not stated) [ethyl 3-(2,3-dihydro-1,4-benzodioxin-3-ylmethylamino)propanoate;hydrochloride]: the EC50 is greater than 300 µM.

Consider `CN1CCc2c(sc3c2c(=O)n(-c2cccc(Cl)c2)c2nncn32)C1` [MLS000084041], for which the 50% effective concentration (EC50) was greater than 300 µM.

As to `CN(CC(=O)OCC(=O)Nc1ccccc1)S(=O)(=O)c1ccc(Cl)cc1` [(2-anilino-2-oxoethyl) 2-[(4-chlorophenyl)sulfonyl-methylamino]acetate], the 50% effective concentration (EC50) is greater than 300 µM.

`CNC(=O)NC(=O)CSc1nc(-c2cccs2)c(C#N)c(=O)[nH]1` [2-[(5-cyano-4-oxo-6-thiophen-2-yl-1H-pyrimidin-2-yl)thio]-N-(methylcarbamoyl)acetamide] had an EC50 of 2.05 µM.

For `O=C(C1=C[C@@H](c2ccc(C(F)(F)F)cc2)C[C@@H](OCCCCO)O1)N1CCN(Cc2ccccc2)CC1` [SMR000389639], the EC50 is greater than 300 µM.

`Cc1nnc2n(-c3ccccc3)c(=O)c3c4c(sc3n12)COC(C)(C)C4` [SMR000038952]: the EC50 was greater than 300 µM.

The compound `Cc1ccc(-c2nnc(SCc3ccccc3F)o2)cc1` [2-[(2-fluorobenzyl)thio]-5-(4-methylphenyl)-1,3,4-oxadiazole] came in with a concentration for a half-maximal effect (EC50) greater than 300 µM.

In turn, `O=C(NCC(c1cccs1)N1CCOCC1)c1ccccc1NS(=O)(=O)c1ccc(Cl)cc1` (configuration not stated) [SMR000242318] displayed a half-maximal effective concentration (EC50) greater than 300 µM.

Compound `Cc1ccnc(NC(=O)c2ccccc2[N+](=O)[O-])c1` [N-(4-methylpyridin-2-yl)-2-nitro-benzamide] displayed an EC50 greater than 300 µM.

For the compound `Cn1c(=O)c2[nH]c(CN3CCN(Cc4ccccc4)CC3)nc2n(C)c1=O` [SMR000120891], the concentration for a half-maximal effect (EC50) is greater than 300 µM.

In turn, `c1ccc(Nc2nc(NCCN3CCOCC3)nc(Nc3ccccc3)n2)cc1` came in with an EC50 greater than 300 µM.

On to `N#Cc1c2n(c3c(-c4ccccc4)ncnc13)CCC2` [MLS000104266], for which the EC50 was 40 µM.

The compound `Nc1ncnc(N2CCc3ccccc32)c1[N+](=O)[O-]` [SMR000323059] yielded a concentration giving a half-maximal response (EC50) of 14 µM.

In turn, `O=C(OCCN1CCOCC1)c1ccc(O)cc1` [SMR000513589] displayed a half-maximal effective concentration (EC50) greater than 300 µM.

In turn, `O=[N+]([O-])c1cc(Cl)ccc1N1CCCC1` [SMR000284754] registered an EC50 greater than 300 µM.

`O=C(NCC(c1ccco1)N1CCOCC1)c1cccc(Cl)c1` (configuration not stated) [SMR000808258] gave a concentration giving a half-maximal response (EC50) greater than 300 µM.

Source of the values: BindingDB's records for doi:10.7270/Q2TX3CTT (Broad Institute, 2010).
